US20170157150A1, “ORAL DOSAGE FORM COMPRISING TRI-SUBSTITUTED GLYCEROL COMPOUNDS” (Alphaptose GmbH, priority 2006, published 2017)

Assays:
[1] = system: LNCaP cells; test: Flow cytometry of annexin V-PE positive / 7-AAD negative cells (apoptotic cells); format: cell-based, human
Description: (§1) In a further approach, 10 μM 1-O-octadecyl-2-O-methyl-glycero-3-phosphocholine (final concentration; “CHEM”) and (ionizing) radiation (5 Gray units; “RT”) were administered simultaneously to the LNCaP cells but the subsequent incubation period was extended to 24 hours. Apoptosis was measured using the Apo-ONE™ Homogenous Caspase-3/7 Assay as described above and expressed as relative fluorescence units (RFLU). The percentage of apoptotic cells was determined by flow cytometric analysis of annexin V-PE positive-stained and 7-AAD (7-Amino ActinomycinD) negative-stained cells (both purchased from BD Biosciences, San Jose, Calif., USA) according to established standard protocols. The data represent means±SEM from three independent experiments.
(§2) Next, the interaction of 1-O-octadecyl-2-O-methyl-glycero-3-phosphocholine administration (“CHEM”) and androgen deprivation (“AD”) was investigated. LNCaP cells were deprived of androgen for two days by charcoal absorption of serum according to established procedures well known in the art. CHEM was added in a final concentration of 5 μM and 10 μM, respectively.
(§3) Apoptosis was measured using the Apo-ONE™ Homogenous Caspase-3/7 Assay as described above and expressed as relative fluorescence units (RFLU). The percentage of apoptotic cells was determined via annexin V-PE/7-AAD staining as described above. The caspase-3/7 assay and annexin staining were performed 22 hours after CHEM treatment.

[2] = system: LNCaP androgen-sensitive human prostate adenocarcinoma cells; test: Apo-ONE Homogenous Caspase-3/7 Assay (apoptosis); format: cell-based
Description: (§4) FIG. 3. Depicts the in vitro effects of 1-O-octadecyl-2-O-methyl-glycero-3-phosphocholine (final concentration 10 μM), (ionizing) radiation (absorbed dose of 5 Gray units; indicated as “RT”), and a combination thereof on programmed cell death (apoptosis) and the survival rate of LNCaP androgen-sensitive human prostate adenocarcinoma cells. Apoptosis was determined using the Apo-ONE™ Homogenous Caspase-3/7 Assay, Promega, Inc., Madison, Wis., USA according to the manufacturer's instructions. The percentage of living cancer cells was estimated by means of trypan blue dye exclusion as described (Freshney, R. I. (1994) Culture of Animal Cells: A Manual of Basic Technique. 3rd Ed. Wiley-Liss. New York. USA). The cells were exposed to radiation six hours after (FIG. 3A), concomitantly with (FIG. 3B), or six hours before administration of 1-O-octadecyl-2-O-methyl-glycero-3-phospho-choline (FIG. 3C). The caspase assay was performed 12 hours after exposure to radiation. The respective data shown represent the average of two independent experiments.
(§5) First, the in vitro effects of 1-O-octadecyl-2-O-methyl-glycero-3-phosphocholine, (ionizing) radiation, and a combination thereof on programmed cell death (apoptosis) and the survival rate of LNCaP androgen-sensitive human prostate adenocarcinoma cells were measured. The LNCaP cell line was established from a metastatic lesion of the adenocarcinoma. The cells were treated with a final concentration of 10 μM 1-O-octadecyl-2-O-methyl-glycero-3-phosphocholine and (ionizing) radiation corresponding to an absorbed dose of 5 Gray units.
(§6) Apoptosis was determined using the Apo-ONE™ Homogenous Caspase-3/7 Assay, Promega, Inc., Madison, Wis., USA according to the manufacturer's instructions. The percentage of living tumor cells was estimated by means of trypan blue dye exclusion as described (Freshney, R. I. (1994) Culture of Animal Cells: A Manual of Basic Technique. 3rd Ed. Wiley-Liss. New York. USA)
(§7) The cells were exposed to radiation six hours after (FIG. 3A), concomitantly with (FIG. 3B), or six hours before administration of 1-O-octadecyl-2-O-methyl-glycero-3-phospho-choline (FIG. 3C). The caspase assay was performed 12 hours after exposure to radiation. The respective data shown represent the average of two independent experiments.
as §1, §2, §3

[3] = system: LNCaP C4-2 cells; test: Apoptosis after CHEM+RT in androgen-insensitive cells; format: cell-based; conditions: data not shown
[4] = system: LNCaP-Res cells; test: as above; format: cell-based; conditions: data not shown
[5] = system: LNCaP androgen-sensitive human prostate adenocarcinoma cells; test: Trypan blue dye exclusion, percentage of living tumor cells; format: cell-based; conditions: for survival rate: untreated controls about 86%
Description: as §4, §5, §6, §7

[6] = system: LNCaP cells grown orthotopically in the prostates of nude mice; test: Orthotopic LNCaP prostate tumor model, serum PSA and tumor volume (MRI); format: in vivo; conditions: 30 mg/kg body weight/day intraperitoneally for 15 days + radiation 5 Gray on day 7; preliminary study
Description: FIG. 4. Depicts the in vivo effects of 1-O-octadecyl-2-O-methyl-glycero-3-phosphocholine (30 mg/kg body weight/day administered intraperitoneally for 15 days: FIG. 4A), (ionizing) radiation (absorbed dose of 5 Gray units administered on day 7; FIG. 4C), and a combination thereof (FIG. 4B) on LNCaP cells grown orthotopically in the prostates of nude mice (seven mice/group). Tumor growth was assessed via determining the serum level of the prostate-specific antigen (PSA) using a commercially available test kit as well as the tumor volume by means of magnetic resonance imaging.
Additionally, in a preliminary study the in vivo effects of 1-O-octadecyl-2-O-methyl-glycero-3-phosphocholine (ionizing) radiation, and a combination thereof on LNCaP cells grown orthotopically in the prostates of nude mice (seven mice/group) was investigated.
1-O-octadecyl-2-O-methyl-glycero-3-phosphocholine was administered intraperitoneally in a dose of 30 mg/kg body weight/day administered intraperitoneally for 15 days (FIG. 4A; studies using different routes of administration such as orally or by gavage are currently under way). […] Tumor growth was assessed via determining the serum level of the prostate-specific antigen (PSA) using a commercially available test kit as well as the tumor volume by means of magnetic resonance imaging.

[7] = Differential scanning calorimetry, excipient compatibility; format: physicochemical; conditions: crystalline compound, heating 5 K/min up to 300° C., cooling 1 K/min down to −30° C.
Description: FIG. 1. Depicts the results of differential scanning calorimetry (DCS) analyses for determining excipient compatibility using a Netzsch DSC 204 apparatus (Netzsch Gerätebau GmbH, Selb, Germany) with a heating rate of 5 K/min up to 300° C. and a cooling rate of 1 K/min down to −30° C. (temperature onset at room temperature (approx. 20° C.)). The below-mentioned samples were tested: crystalline 1-O-octadecyl-2-O-methyl-glycero-3-phosphocholine alone (black curves), the following excipients alone (red curves): lactose (FIG. 1A), crospovidone (FIG. 1B), starch 1500 (FIG. 1C), siliciumdioxide (FIG. 1D), as well as magnesium stearate (FIG. 1E), and binary mixtures of 1-O-octadecyl-2-O-methyl-glycero-3-phosphocholine and each excipient (green curves).
Differential scanning calorimetry (DCS) analyses were performed for determining the compatibility of different excipients for formulating tablets according to the present invention.
DSC is a thermoanalytical technique in which the difference in the amount of heat required to increase the temperature of a sample and reference is measured as a function of temperature. Both the sample and reference are maintained at nearly the same temperature throughout the experiment. Generally, the temperature program for a DSC analysis is designed such that the temperature increases or decreases linearly as a function of time. […]

[8] = 10 μM CHEM + RT (5 Gray) simultaneously, 24 hours incubation, means±SEM, p<0.0001 vs CHEM and RT
[9] = AD + R1881 (two days prior to CHEM) + 5 μM CHEM, 22 hours
[10] = AD + R1881 (two days prior to CHEM) + 10 μM CHEM, 22 hours

CCCCCCCCCCCCCCCCCCOCC(COP(=O)([O-])OCC[N+](C)(C)C)OC (stereo not drawn) [1-O-octadecyl-2-O-methyl-glycero-3-phosphocholine]
% Annexin V-PE pos. cells [1, 8]: 31.7 ± 1.0 %
% Annexin V-PE pos. cells ([1]; 10 μM CHEM alone, 24 hours incubation, means±SEM, three experiments, control 3.6 ± 0.2): 18.6 ± 1.0%
% Annexin V-PE pos. cells [1, 9]: 14.6%
% Annexin V-PE pos. cells [1, 10]: 21.6%
% Annexin V-PE pos. cells ([1]; Contr. cells + 5 μM CHEM, 22 hours after treatment, Contr. 9.8): 13.0%
% Annexin V-PE pos. cells ([1]; Contr. cells + 10 μM CHEM, 22 hours after treatment, Contr. 9.8): 17.5%
% Annexin V-PE pos. cells ([1]; androgen deprivation (AD) two days + 5 μM CHEM, 22 hours, AD alone 12.6): 15.4%
% Annexin V-PE pos. cells ([1]; androgen deprivation (AD) two days + 10 μM CHEM, 22 hours, AD alone 12.6): 27.4%
apoptotic response in androgen-deprived LNCaP cells ([1]; androgen-deprived cells, 5 μM and 10 μM): dose-dependent significant increase
reversal of the apoptotic effect by synthetic androgen added prior to treatment ([1]; androgen-deprived cells, R1881 added two days prior): not reversed
Caspase-3/7 activity (RFLU) [2, 8]: 1514 ± 102 RFLU
Caspase-3/7 activity (RFLU) ([2]; 10 μM CHEM alone, 24 hours incubation, means±SEM, three experiments, control 193 ± 39): 580 ± 207 RFLU
extent of apoptosis, increase in cells only exposed to the chemical as compared to combined treatment ([2]; 10 μM compound six hours after radiation (5 Gray), FIG. 3C): about 25%
increase in apoptotic response (caspase-3/7 assay) ([2]; 10 μM compound six hours prior to radiation (5 Gray), combined treatment, assay 12 hours after radiation, FIG. 3A): > 2.5 fold
Caspase-3/7 activity (RFLU) [2, 9]: 453 RFLU
Caspase-3/7 activity (RFLU) [2, 10]: 962 RFLU
Caspase-3/7 activity (RFLU) ([2]; Contr. cells + 5 μM CHEM, 22 hours after treatment, Contr. 235): 380 RFLU
Caspase-3/7 activity (RFLU) ([2]; Contr. cells + 10 μM CHEM, 22 hours after treatment, Contr. 235): 436 RFLU
Caspase-3/7 activity (RFLU) ([2]; androgen deprivation (AD) two days + 5 μM CHEM, 22 hours, AD alone 81): 126 RFLU
Caspase-3/7 activity (RFLU) ([2]; androgen deprivation (AD) two days + 10 μM CHEM, 22 hours, AD alone 81): 115 RFLU
apoptosis in CHEM+RT treated cells [3]: enhancement of apoptosis
apoptosis in CHEM+RT treated cells [4]: enhancement of apoptosis
survival rate of tumor cells ([5]; 10 μM compound alone, FIG. 3A experiment, untreated controls about 85%): about 60%
survival rate ([5]; 10 μM compound alone, FIG. 3B experiment): about 50%
survival of cells ([5]; 10 μM compound alone, FIG. 3C experiment): about 45%
survival rate ([5]; 10 μM compound concomitantly with radiation (5 Gray), FIG. 3B): about 55%
survival of cells ([5]; 10 μM compound six hours after radiation (5 Gray), combined treatment, FIG. 3C): about 40%
survival of tumor cells ([5]; 10 μM compound six hours prior to radiation (5 Gray), combined treatment, FIG. 3A, untreated controls about 85%): about 45%
PSA serum levels, combined treatment compared to either individual treatment [6]: significant decrease

C[C@]1(O)CC[C@H]2[C@@H]3CCC4=CC(=O)CCC4=C3C=C[C@@]21C [R1881]
% Annexin V-PE pos. cells ([1]; AD + R1881, no CHEM, AD alone 12.6): 7.0%
Caspase-3/7 activity (RFLU) ([2]; AD + R1881, no CHEM, AD alone 81): 130 RFLU

OC[C@H]1O[C@@H](O[C@H]2[C@H](O)[C@@H](O)C(O)O[C@@H]2CO)[C@H](O)[C@@H](O)[C@H]1O (stereo partly drawn) [lactose]
interaction of excipient with 1-O-octadecyl-2-O-methyl-glycero-3-phosphocholine (DSC thermogram of binary mixture) [7]: show such interactions

magnesium stearate
interaction of excipient with 1-O-octadecyl-2-O-methyl-glycero-3-phosphocholine (DSC thermogram of binary mixture) [7]: dominate the thermogram
